Entries after “also recorded” stand apart in the source; their conditions may differ.
How the values were obtained:
[1] = tested on: osteoclast precursors (PBMNC); assay: Osteoclast differentiation model, TRAP+ cell count; assay type: cell-based, human; settings: peptide 200 nM added on day four to osteoclast precursor culture, 15 days; compared to positive control (CTRL)
Experimental: A. Positive differentiation controls. B. Influence of synthetic peptides (200 nM) on osteoclast differentiation. C. Negative differentiation control. αMEM—Minimum Essential Medium Eagle Alpha Modification; FBS—fetal bovine serum; TRANCE—Tumor Necrosis Factor (TNF)-related Activation-induced Cytokine; M-CSF—Macrophage Colony-Stimulating Factor; TGF-β1—Transforming growth factor beta-1.
The present invention includes the culture of monocytic cells of human leukemia (THP-1), osteoclast, primary human blood-derived mononuclear cells (PBMNC), and human chondrocytes (NHAC-kn).
Negative differentiation controls. B. Influence of synthetic peptides (200 nM) on osteoclast differentiation.
PBMNC were isolated and, immediately after, plating inductive culture medium (composed of Alpha-MEM+10% FBS+MCSF [25 ng/mL]+RANKL [50 ng/mL]+TGF-beta 1 [5 ng/mL]+Dexamethasone [1 μM]) was added for 15 days. On day four, the L. obliqua venom at a concentration of […] or toxins at a concentration of 200 nM, each individually, was added to the osteoclast precursor culture and these culture conditions were maintained until the end of the differentiation. Then, the cells were fixed and stained with tartrate-resistant acid phosphatase (TRAP).

[2] = tested on: neurons obtained from SHSY5Y cells; assay: Anti-nociceptive/anti-inflammatory model, neurons stimulated with glycated collagen (GC): substance P and β-endorphin in supernatant; assay type: cell-based
Experimental: ANOVA and Dunnet * p<0.05; ** p<0.01 compared to glycated collagen (GC);
ANOVA and Dunnet * p<0.05 ** p<0.01, *** p<0.001 compared with GC;
The differentiation process consists of 6 stages distributed over 7 days. On the first day of the differentiation protocol (day 0), cells were seeded in collagen-coated plates. On days 1, 3, and 4 the culture medium was removed, and the differentiation medium containing 2% fetal bovine serum (FBS) and retinoic acid (RA) 10 μM) was added. On day 5, the medium was removed and the culture was incubated with culture medium and brain-derived neurotrophic factor (BDNF) (50 ng/mL). On day 7 of the differentiation process, differentiated neurons are fully ready for use (Agholme et al., 2010, with some modifications).
7×10^3 neurons/well were incubated with 10 μM of morphine (inhibitory response control) or peptides (200 nM and 500 nM) 3 hours before or 3 hours after incubation with IL-1β (10 ng/mL) or glycated collagen (GC) (100 μg/mL) (both positive controls for the release of substance P). After 24 hours of incubation, the cell viability assay and the detection of substance P and β-endorphin in the supernatant were performed. Multiplex with magnetic spheres (MILLIPLEX® MAP Magnetic Bead Panel)
ANOVA and Dunnet * p<0.05; ** p<0.01 compared to GC.
ANOVA and Dunnet * p<0.05 ** p<0.01, *** p<0.001 compared to GC.

[3] = tested on: human chondrocytes (NHAC-kn); assay: Pro-inflammatory model of chondrocytes treated with IL-1β, cytokine release (Multiplex); assay type: cell-based; settings: chondrocytes treated with IL-1β (1 ng/mL)
Experimental: Values were obtained from each analyte in pg/mL from treatment with the peptides in the presence of IL-1β (1 ng/mL). The data are presented as the mean±MSE (* p<0.05 when compared to the control with IL-1β, test t, n=3).
(B) Chondrocytes were pretreated for 1 hour with IL-1β (1 ng/mL) before the addition of peptides (200 nM, 500 nM, and 1.25 μM) and an additional incubation of 24 hours before collecting the supernatants.
The primary human chondrocytes used in this assay were purchased from Lonza: Normal Human Articular Primary chondrocytes (NHAC-Kn, #CC-2550, Lot 8F3336). Chondrocyte cell culture was performed in bottles (Sarstedt T175 and T75). The cells were cultivated in DMEM culture medium (Sigma) supplemented with 10% fetal bovine serum (FBS) (Sigma), incubated in an oven at 37° C. and 5% CO2, and cultures were used in the sixth passage. The culture medium was changed every two days until the culture reached 80% confluence.
The identification and quantitative analysis of the cytokines present in the peptide treatment supernatant were performed using the Luminex xMAP Milliplex MAP Human Cytokine/Chemokine Magnetic Bead Panel Catalog #HCYTOMAG-60K technology, according to the manufacturer's instructions.
Values were obtained from each analyte in pg/mL from treatment with the peptides in the presence of IL-1β (1 ng/mL). The data are presented as the mean±MSE (*p<0.05 when compared to the control with IL-1β, test t, n=3).

[4] = tested on: THP-1 cells differentiated into macrophages; assay: LPS-induced cytokine production in THP-1-derived macrophages (Multiplex); assay type: cell-based, human
Experimental: THP-1 cells differentiated into macrophages were induced with LPS (10 ng/mL) and, one hour later, treated with synthetic peptides at a concentration of 200 nM. Dexamethasone (10 μM), an inflammatory inhibitor, was used as a control. After 24 hours, the culture medium was collected to measure the IL-1β (A), IL-6 (B), TNF-α (C), and IL-10 cytokines using a Multiplex kit. * p<0.05 vs. LPS; ** p<0.01 vs. LPS; *** p<0.005 vs. LPS;
THP-1 cells differentiated into macrophages were induced with LPS (10 ng/mL) and, one hour later, treated with L4 or D3 peptide (0.05 μM, 0.2 μM, 1 μM, and 2 μM). After 24 hours, the culture medium was collected and TNF-alpha, IL-6, IL-23, and IL-8 were measured by Multiplex. (A) L4 peptide. (B) D3 peptide;
Macrophages were obtained from the differentiation of monocytes THP-1. Briefly, 1×10^7 cells were treated in the RPMI medium with 25 nM PMA for 48 hours followed by 24 hours of rest in medium without PMA. Subsequently, the cells were released and plated for the respective treatments.
The kit is based on Luminex® xMAP® technology that allows the simultaneous analysis of various cytokines. The technique is based on marked magnetic fluorescent spheres, known as MagPlex®-C microspheres. These microspheres are covered with capture antibodies specific for IL-6 […], and specifically capture the analyte in the supernatant. Each microsphere was individually identified and the results were analyzed using Luminex® Xponent® 4.2 acquisition software.
THP-1 cells differentiated into macrophages were induced with LPS (10 ng/mL) and, one hour later, treated with synthetic peptides, […] (inflammation inhibitor, 10 μM). After 24 hours, the culture medium was collected and IL-1β (A), IL-6 (B), TNF-α (C), and IL-10 were measured by Multiplex. * p<0.05 vs. LPS; ** p<0.01 vs. LPS; *** p<0.005 vs. LPS.
THP-1 cells differentiated into macrophages were induced with LPS (10 ng/mL) and, one hour after, treated with L4 (0.05 μM, 0.2 μM, 1 μM, and 2 μM). After 24 hours, the culture medium was collected and TNF-α, IL-6, IL-23, and IL-8 were measured by Multiplex. (A) L4 peptide. (B) D3 peptide.

[5] = peptide 200 nM incubated 3 hours after GC (100 μg/mL)
[6] = LPS 10 ng/mL, peptide 200 nM one hour later, 24 hours, vs group treated only with LPS
[7] = dose-response 0.05, 0.2, 1 and 2 μM, LPS 10 ng/mL, 24 hours

Molecule: EEQTHFHFESPKLISFKVQDYWILNDIMKKNLTGISLKSEEEDADSGEID (Designated peptide based on the motif of a group of proteins called hemoline from lepidoptera acting as an anti-inflammatory molecule) [Cambly, peptide derived from the Amblyomin-X molecule with characteristics of CPP (cell-penetrating peptides)]
- number of TRAP+ cells [1]: reduced
- production of Substance P [2, 5]: significantly inhibited
- production of β-endorphin [2, 5]: increased
- production of Substance P ([2]; peptide (200 nM and 500 nM) incubated 3 hours before GC (100 μg/mL)): significantly decrease; also recorded: inhibited
- production of β-endorphin ([2]; peptide incubated 3 hours before GC (100 μg/mL)): did not affect

Molecule: SWLKNGREFR (Designated peptide based on the motif of a group of proteins called hemoline from lepidoptera acting as an anti-inflammatory molecule) [L5]
- anti-inflammatory activity (release of G-CSF, GM-CSF, IL-6, IL-8, MCP-1, TNF-α) [3]: anti-inflammatory activity

Molecule: IWTKDGKAIT (Designated peptide based on the motif of a group of proteins called hemoline from lepidoptera acting as an anti-inflammatory molecule) [L1]
- anti-inflammatory activity (release of G-CSF, GM-CSF, IL-6, IL-8, MCP-1, TNF-α) [3]: anti-inflammatory activity

Molecule: TWNKKGKKVN (Designated peptide based on the motif of a group of proteins called hemoline from lepidoptera acting as an anti-inflammatory molecule) [L4]
- anti-inflammatory activity (release of G-CSF, GM-CSF, IL-6, IL-8, MCP-1, TNF-α) [3]: anti-inflammatory activity
- levels of IL-10 (anti-inflammatory cytokine) ([4]; LPS 10 ng/mL, peptide 200 nM one hour later, 24 hours): increase
- levels of IL-1β [4, 6]: significantly reducing
- levels of IL-6 [4, 6]: significantly reducing
- levels of TNF-a [4, 6]: significantly reducing
- dose achieving the greatest inhibition of IL-6 release [4, 7]: 200 nM
- dose achieving the greatest inhibition of IL-8 release [4, 7]: 200 nM
- most effective dose concerning IL-23 release [4, 7]: 1 µM
- most effective dose concerning TNF-α release [4, 7]: 1 µM
- production of inflammatory cytokines in response to LPS (dose-dependent) ([4]; dose-response 0.05-2 μM, TNF-α, IL-6, IL-23, IL-8): reduced

Molecule: QPEISWTRNK (Designated peptide based on the motif of a group of proteins called hemoline from lepidoptera acting as an anti-inflammatory molecule) [L6]
- anti-inflammatory activity (release of G-CSF, GM-CSF, IL-6, IL-8, MCP-1, TNF-α) [3]: anti-inflammatory activity

Molecule: VWRKNGKKVS (Designated peptide based on the motif of a group of proteins called hemoline from lepidoptera acting as an anti-inflammatory molecule) [L3]
- anti-inflammatory activity (release of G-CSF, GM-CSF, IL-6, IL-8, MCP-1, TNF-α) [3]: anti-inflammatory activity

Molecule: NYFKNGKDVN (Designated peptide based on the motif of a group of proteins called hemoline from lepidoptera acting as an anti-inflammatory molecule) [L2]
- number of TRAP+ cells [1]: no statistically significant difference
- anti-inflammatory activity (release of G-CSF, GM-CSF, IL-6, IL-8, MCP-1, TNF-α) [3]: anti-inflammatory activity

Molecule: YSIVAGCL (Designated peptide based on the motif of a group of proteins called hemoline from lepidoptera acting as an anti-inflammatory molecule) [E8]
- anti-inflammatory activity (release of G-CSF, GM-CSF, IL-6, IL-8, MCP-1, TNF-α) [3]: anti-inflammatory activity
- production of Substance P [2, 5]: significantly inhibited
- production of β-endorphin [2, 5]: increased

Molecule: RWLKDGQAFH (Designated peptide based on the motif of a group of proteins called hemoline from lepidoptera acting as an anti-inflammatory molecule) [L8]
- anti-inflammatory activity (release of G-CSF, GM-CSF, IL-6, IL-8, MCP-1, TNF-α) [3]: anti-inflammatory activity

B1: YSIVAGSLGGGGEEQTHFHFESPKLISFKVQDYWILNDIMKKNLTGISLKSEEEDADSGEID (peptide)
chain: YSIVAGSLGGGGEEQTHFHFESPKLISFKVQDYWILNDIMKKNLTGISLKSEEEDADSGEID
modifications: Designated peptide based on the motif of a group of proteins called hemoline from lepidoptera acting as an anti-inflammatory molecule
- number of TRAP+ cells [1]: significant decrease; also recorded: reduced

B2: YAIGYSSKDYKGGGGEEQTHFHFESPKLISFKVQDYWILNDIMKKNLTGISLKSEEEDADSGEID (peptide)
chain: YAIGYSSKDYKGGGGEEQTHFHFESPKLISFKVQDYWILNDIMKKNLTGISLKSEEEDADSGEID
modifications: Designated peptide based on the motif of a group of proteins called hemoline from lepidoptera acting as an anti-inflammatory molecule
- production of Substance P [2, 5]: significantly inhibited
- production of β-endorphin [2, 5]: increased

Reference: US20220324958A1, “ANTI-INFLAMMATORY PEPTIDES, PHARMACEUTICAL COMPOSITION CONTAINING SUCH PEPTIDES, AND USES THEREOF” (INSTITUTO BUTANTAN, priority 2019, published 2022)
